We go through 2 compounds from PubChem BioAssay (NCI).

Some test systems named below: LXFL 529 NSCLC; M19-MEL melanoma; NCI-H226 lung; NCI/ADR-RES ovarian; OVCAR-3 ovarian; RXF 393 renal; SF-268 CNS; SK-MEL-28 melanoma; SK-MEL-5 melanoma; T-47D breast.
Holding throughout (assay): growth of human tumour cells (NCI), 48 h

“And” between values parts separate entries of the source, which are not always exact repeats. Equal values may be shown once.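 Values below derive from 48-hour exposures of cells grown in 96-well plates, with endpoints linearly interpolated between the two concentrations bracketing the appropriate inhibition level. GI50 is the concentration that inhibits growth by half. TGI: total growth inhibition.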 Bounds are passed on as bounds.

As to `COc1cc2c[n+](C)c3c4ccccc4ccc3c2cc1OC` (tested in a mixture with another compound), the TGI was 16 µM with LXFL 529 NSCLC; 15.4 µM with M19-MEL melanoma; 33 µM in the test with NCI-H226 lung; more than 100 µM in the test on NCI/ADR-RES ovarian; 7.41 µM and 21.4 µM with OVCAR-3 ovarian; 54.4 µM with RXF 393 renal. For the same compound, the TGI is 2.86 µM and 10.4 µM with SF-268 CNS; 8.22 µM and 18.6 µM in the test with SK-MEL-28 melanoma; 29 µM in the test with SK-MEL-5 melanoma; 63.3 µM in the test on T-47D breast. Also, the GI50 in the test with OVCAR-3 ovarian was 1.64 µM; in the test with SK-MEL-28 melanoma, 2.89 µM; in the test on SK-MEL-5 melanoma it was 7.6 µM; with T-47D breast it was 4.68 µM.
With `CC(=O)OCC1OC(OC2CC3C(C)(C)C(O)CC[C@]3(C)C3CCC45CC4(CC[C@H]5C(C)CC(O)C4OC4(C)C)[C@]23C)C(O)C(O)C1O` (some centres undefined), the GI50 in the test with LXFL 529 NSCLC was 2.92 µM; in the test with M19-MEL melanoma, 3.7 µM; in the test with OVCAR-3 ovarian, 4.26 µM; in the test on RXF 393 renal, 9.7 µM; in the test with SF-268 CNS it was 11 µM; in the test with SK-MEL-28 melanoma, 8.37 µM. For the same compound, the GI50 with SK-MEL-5 melanoma is 5.65 µM. The TGI was 12.2 µM and 12.6 µM in the test on LXFL 529 NSCLC; 10.6 µM and 12.6 µM with M19-MEL melanoma; 16.1 µM with NCI-H226 lung; 12.5 µM and 17.6 µM in the test with OVCAR-3 ovarian; 10.7 µM and 38.5 µM with RXF 393 renal; 13.4 µM and 28.4 µM in the test on SF-268 CNS. The TGI is 14.3 µM and 21.3 µM in the test on SK-MEL-28 melanoma; 10.2 µM and 17.6 µM with SK-MEL-5 melanoma.
